The subject of assay [1] is A-II-induced pressor action. The assay is described as follows: Inhibitory effect on pressor action of angiotensin II in rats (p.o.). The conditions noted are these: Rattus norvegicus, po; 1 mg/kg p.o.; male SD rats; A-II 100 ng/kg i.v.; read-out: Pressor Response (percent inhibition of A-II-induced pressor action). Type of assay: in vivo, Jcl: SD rats. An excerpt:
Inhibitory Effect of the Compound of the Present Invention on Pressor Action of Angiotensin
Jcl: SD rats (9 week old, male) were employed. On the day previous to that of the experiment, these animals were applied with cannulation into the femoral artery and vein under anesthesia with pentobarbital Na. The animals were fasted but allowed to access freely to drinking water until the experiment was started. Just on the day of conducting the experiment, the artery cannula was connected with a blood-pressure transducer, and the average blood pressure was recorded by means of polygraph. Before administration of the drug, the pressor action due to intravenous administration of angiotensin II (A-II) (100 ng/kg) as the control was measured. The drugs were orally administered, then, at each point of the measurement, A-II was administered intravenously, and the pressor action was similarly measured. By comparing the pressor action before and after administration of the drug, the percent inhibition by the drug on A-II-induced pressor action was evaluated.

In assay [2] the target is T1, angiotensin II (A-II) receptor (Bos taurus, UniProt P25104).
T1 construct: membrane fraction was prepared from bovine adrenal cortex; from tissue; host or cells: bovine adrenal cortex membrane fraction
T1 sequence (P25104 1-359): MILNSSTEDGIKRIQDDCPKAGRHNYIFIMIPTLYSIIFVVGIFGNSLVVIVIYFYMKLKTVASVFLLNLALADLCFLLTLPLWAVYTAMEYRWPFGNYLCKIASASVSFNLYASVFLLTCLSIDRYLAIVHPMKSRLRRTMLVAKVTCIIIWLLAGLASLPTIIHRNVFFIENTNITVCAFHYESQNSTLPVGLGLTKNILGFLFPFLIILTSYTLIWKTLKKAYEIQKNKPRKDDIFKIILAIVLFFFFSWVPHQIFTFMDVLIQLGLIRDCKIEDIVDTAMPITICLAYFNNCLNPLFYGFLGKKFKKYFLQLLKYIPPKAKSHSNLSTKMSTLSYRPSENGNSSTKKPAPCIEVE
The assay is described as follows: Inhibition of binding of angiotensin II to angiotensin II receptor (radioreceptor assay, 125I-A-II, bovine adrenal cortex membrane fraction). The conditions noted are these: room temperature, 1 h; for inhibition at 1 µM: 10^-6 M; for inhibition at 0.1 µM: 10^-7 M. Here is the method:
Inhibitory Effect of Binding of Angiotensin-II to Angiotensin Receptor
An experiment of inhibition on the binding of angiotensin II (A-II) receptor was conducted by modifying the method of Douglas et al. [Endocrinology, 102, 685-696 (1978)]. An A-II receptor membrane fraction was prepared from bovine adrenal cortex.
The compound of the present invention (10^-6 M or 10^-7 M) and^125 I-angiotensin II (^125 I-A-II) (1.85 kBq/50 μl) were added to the receptor membrane fraction, and the mixture was incubated at room temperature for one hour. The receptor-bound and free ^125 I-A-II were separated through a filter (Whatman GF/B filter), and the radioactivity of ^125 I-A-II bound to the receptor was measured.

Data on 14 molecules can be found in US5463073A, “Thienoimidazole derivatives, their production and use” (Takeda Chemical Industries, Ltd., priority 1990, dated 1995).

For `CSc1nc2c(C)sc(C(=O)O)c2n1Cc1ccc(-c2ccccc2-c2nn[nH]n2)cc1` [Working Example 15], in assay [1], the inhibition in vivo at 1 mg/kg is ≥ 70%. Also, in assay [2], testing at 1 µM gave an inhibition of 50% and the inhibition (as a rule, the change of the read-out against control, counted positive when it falls) at 0.1 µM is 14%.

For `CCSc1nc2c(C)sc(C(=O)OC)c2n1Cc1ccc(-c2ccccc2-c2nn[nH]n2)cc1` [compound 1], in assay [1], the inhibition in vivo at 1 mg/kg lay in the range of 30 to 50%. Besides, in assay [2], the inhibition at 1 µM was determined as 91% and testing at 0.1 µM gave an inhibition of 68%.

For the molecule `COC(=O)c1sc(C)c2nc(SC)n(Cc3ccc(-c4ccccc4-c4nn[nH]n4)cc3)c12` [compound 7], the inhibition in vivo at 1 mg/kg in assay [1] lay in the range of 30 to 50%. In assay [2], this molecule came in with an inhibition at 1 µM of 77% and an inhibition at 0.1 µM of 55%.

Take `Cc1sc(C(=O)O)c2c1nc(SC(C)C)n2Cc1ccc(-c2ccccc2-c2nnn[nH]2)cc1` [Working Example 17, 2-Isopropylthio-4-methyl-1-[[2'-(1H-tetrazol-5-yl]-biphenyl-4-yl]methyl]thieno[3,4-d]imidazole-6-carboxylic acid]: the inhibition in vivo at 1 mg/kg in assay [1] was ≥ 70%. Moreover, in assay [2], 1 µM produced 64% inhibition and the inhibition at 0.1 µM was found to be 26%.

With `CCCCSc1nc2c(C)sc(C(=O)O)c2n1Cc1ccc(-c2ccccc2-c2nn[nH]n2)cc1` [Working Example 18, 2-Butylthio-4-methyl-1-[[2',(1H-tetrazol-5-yl)biphenyl-4-yl]methyl]thieno[3,4-d]imidazole-6-carboxylic acid], the inhibition in vivo at 1 mg/kg in assay [1] fell in the range of 30 to 50%. In assay [2], this molecule returned an inhibition at 1 µM of 66% and an inhibition at 0.1 µM of 33%.

In assay [2], `CCOc1nc2c(C)sc(C(=O)O)c2n1Cc1ccc(-c2ccccc2-c2nn[nH]n2)cc1` [compound 29] registered an inhibition at 1 µM of 67% and an inhibition at 0.1 µM of 39%.

As for `CCSc1nc2c(C)sc(C(=O)OCOC(=O)C(C)(C)C)c2n1Cc1ccc(-c2ccccc2-c2nn[nH]n2)cc1` [compound 5], the inhibition in vivo at 1 mg/kg in assay [1] was ≥ 70%. For the same molecule, in assay [2], 1 µM produced 89% inhibition and at 0.1 µM the inhibition was 59%.

For the molecule `COc1nc2c(C)sc(C(=O)OCOC(C)=O)c2n1Cc1ccc(-c2ccccc2-c2nn[nH]n2)cc1` [compound 36], the inhibition in vivo at 1 mg/kg in assay [1] is ≥ 70%. In assay [2], this molecule displayed an inhibition at 1 µM of 92% and an inhibition at 0.1 µM of 73%.

In the case of `COc1nc2c(C)sc(C(=O)O)c2n1Cc1ccc(-c2ccccc2-c2nn[nH]n2)cc1` [compound 28], in assay [1], the inhibition in vivo at 1 mg/kg is ≥ 70%. In assay [2], this molecule displayed an inhibition at 1 µM of 65% and an inhibition at 0.1 µM of 19%.

In assay [2], `CCCOc1nc2c(C)sc(C(=O)O)c2n1Cc1ccc(-c2ccccc2-c2nn[nH]n2)cc1` [compound 30] yielded an inhibition at 1 µM of 72% and an inhibition at 0.1 µM of 33%.

On to `CCSc1nc2csc(C(=O)O)c2n1Cc1ccc(-c2ccccc2-c2nnn[nH]2)cc1` [Working Example 22, 2-Ethylthio-1-[[2'-(1H-tetrazol-5-yl)biphenyl-4-yl]methyl]thieno[3,4-d]imidazole-6-carboxylic acid], for which, in assay [1], the inhibition in vivo at 1 mg/kg is 50 to 70%. In assay [2], this molecule had an inhibition at 1 µM of 84% and an inhibition at 0.1 µM of 45%.

Regarding `CCSc1nc2c(C)sc(C(=O)OC(C)OC(=O)OC3CCCCC3)c2n1Cc1ccc(-c2ccccc2-c2nn[nH]n2)cc1` (stereo not drawn) [compound 6], in assay [1], the inhibition in vivo at 1 mg/kg is ≥ 70%. Also, in assay [2], the inhibition at 1 µM was found to be 84% and testing at 0.1 µM gave an inhibition of 46%.

Regarding `CCSc1nc2c(C)sc(C(=O)O)c2n1Cc1ccc(-c2ccccc2-c2nn[nH]n2)cc1` [compound 2], the inhibition in vivo at 1 mg/kg in assay [1] was ≥ 70%. In assay [2], the inhibition at 1 µM came out at 64% and at 0.1 µM the inhibition was 18%.

With `CCNc1nc2c(C)sc(C(=O)O)c2n1Cc1ccc(-c2ccccc2-c2nn[nH]n2)cc1` [compound 31], in assay [2], the inhibition at 1 µM came to 75% and 0.1 µM produced 26% inhibition.
